Experimental data published in patent US20120181173A1, “ELECT[…] FOR THE DETECTION OF ANALYTES IN LIQUID MEDIA” (priority 2009, published 2012).
Several values for one entry are separate records, joined by “and”; a condition that tells them apart may be missing. Equal entries are not always repeated.

Columns and labels:
[1] = target: T1, acetylcholinesterase enzyme (Electrophorus electricus, UniProt O42275); experiment: Inhibition of acetylcholinesterase by chlorpyrifos oxon in the Example 4 sensor (silver intermediate layer; graphite; PEDOT layer with PVA layer, d1); settings: Example 4 sensor (silver + d1), 100 mV
[2] = target: T1, acetylcholinesterase enzyme; experiment: Inhibition of acetylcholinesterase by chlorpyrifos oxon in the Example 2 sensor (graphite; PEDOT and PVA conductive gel, d2); settings: Example 2 sensor (d2), 100 mV
[3] = target: T1, acetylcholinesterase enzyme; experiment: Inhibition of acetylcholinesterase by chlorpyrifos oxon in the Example 3 sensor (graphite; cobalt phthalocyanine intermediate layer; PEDOT and PVA, d2); settings: Example 3 sensor (CoPh + d2), 100 mV
[4] = target: T1, acetylcholinesterase enzyme; experiment: Inhibition of acetylcholinesterase by chlorpyrifos oxon in the Example 1 sensor (graphite; PEDOT layer with PVA layer, d1); settings: Example 1 sensor (d1), 100 mV

T1 sequence (O42275 24-633): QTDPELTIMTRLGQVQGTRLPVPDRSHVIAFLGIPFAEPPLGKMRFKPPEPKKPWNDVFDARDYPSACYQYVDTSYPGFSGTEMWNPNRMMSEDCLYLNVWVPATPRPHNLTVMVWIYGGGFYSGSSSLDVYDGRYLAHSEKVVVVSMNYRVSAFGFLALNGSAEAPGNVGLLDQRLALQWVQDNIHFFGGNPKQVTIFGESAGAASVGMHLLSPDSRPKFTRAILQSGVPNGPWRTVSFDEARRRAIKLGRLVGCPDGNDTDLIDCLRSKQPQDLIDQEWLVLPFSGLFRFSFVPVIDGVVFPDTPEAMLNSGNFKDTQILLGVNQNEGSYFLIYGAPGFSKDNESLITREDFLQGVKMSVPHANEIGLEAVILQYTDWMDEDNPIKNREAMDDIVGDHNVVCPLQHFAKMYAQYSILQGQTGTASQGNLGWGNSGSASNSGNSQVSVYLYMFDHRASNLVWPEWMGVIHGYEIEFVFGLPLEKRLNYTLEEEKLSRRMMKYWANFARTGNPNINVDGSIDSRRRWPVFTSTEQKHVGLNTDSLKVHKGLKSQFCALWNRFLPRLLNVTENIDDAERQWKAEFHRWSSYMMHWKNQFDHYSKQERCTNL

Question: Which “% of inhibition in the presence of pesticide” value (“% of inhibition” for short) ([1]; chlorpyrifos oxon 1 · 10^−9 M) does the source give for chlorpyrifos oxon here?
Answer: The value was 49.50%.

Question: And the “% of inhibition” value ([1]; chlorpyrifos oxon 2 · 10^−10 M)?
Answer: The value was 8% and 8.28%.

Question: And the “% of inhibition” value ([1]; chlorpyrifos oxon 3 · 10^−9 M)?
Answer: Its value is 72.23%.

Question: What about the “% of inhibition” value ([1]; chlorpyrifos oxon 3 · 10^−10 M) of the same substance?
Answer: Its value is 19.14%.

Question: And the “% of inhibition” value ([1]; chlorpyrifos oxon 4 · 10^−10 M)?
Answer: Its value is 24.51%.

Question: And the “% of inhibition” value ([1]; chlorpyrifos oxon 5 · 10^−10 M)?
Answer: Its value is 30.10%.

Question: And the “% of inhibition” value ([1]; chlorpyrifos oxon 9 · 10^−10 M)?
Answer: Its value is 47.55%.

Question: And the “% of inhibition” value ([2]; chlorpyrifos oxon 1 · 10^−9 M)?
Answer: The value was 41.71%.

Question: What about the “% of inhibition” value ([2]; chlorpyrifos oxon 3 · 10^−9 M) of the same substance?
Answer: Its value is 61.15%.

Question: What about the “% of inhibition” value ([2]; chlorpyrifos oxon 3 · 10^−10 M) of the same substance?
Answer: Its value is 10% and 10.09%.

Question: And the “% of inhibition” value ([2]; chlorpyrifos oxon 4 · 10^−10 M)?
Answer: The value was 15.31%.

Question: What about the “% of inhibition” value ([2]; chlorpyrifos oxon 5 · 10^−10 M) of the same substance?
Answer: Its value is 22.19%.

Question: What about the “% of inhibition” value ([2]; chlorpyrifos oxon 9 · 10^−10 M) of the same substance?
Answer: Its value is 39.75%.

Question: What about the “% of inhibition” value ([3]; chlorpyrifos oxon 1 · 10^−9 M) of the same substance?
Answer: The value was 52.36%.

Question: And the “% of inhibition” value ([3]; chlorpyrifos oxon 2 · 10^−10 M)?
Answer: Its value is 9.82%.

Question: And the “% of inhibition” value ([3]; chlorpyrifos oxon 3 · 10^−9 M)?
Answer: Its value is 74.80%.

Question: And the “% of inhibition” value ([3]; chlorpyrifos oxon 3 · 10^−10 M)?
Answer: The value was 10.70%.

Question: What about the “% of inhibition” value ([3]; chlorpyrifos oxon 4 · 10^−10 M) of the same substance?
Answer: Its value is 32.51%.

Question: And the “% of inhibition” value ([3]; chlorpyrifos oxon 5 · 10^−10 M)?
Answer: Its value is 31.46%.

Question: And the “% of inhibition” value ([3]; chlorpyrifos oxon 9 · 10^−10 M)?
Answer: Its value is 49.18%.

Question: What about the “% of inhibition” value ([4]; chlorpyrifos oxon 1 · 10^−9 M) of the same substance?
Answer: Its value is 46.82%.

Question: And the “% of inhibition” value ([4]; chlorpyrifos oxon 2 · 10^−10 M)?
Answer: Its value is 7% and 7.21%.

Question: What about the “% of inhibition” value ([4]; chlorpyrifos oxon 3 · 10^−9 M) of the same substance?
Answer: The value was 69.20%.

Question: What about the “% of inhibition” value ([4]; chlorpyrifos oxon 3 · 10^−10 M) of the same substance?
Answer: Its value is 16.11%.

Question: What about the “% of inhibition” value ([4]; chlorpyrifos oxon 4 · 10^−10 M) of the same substance?
Answer: Its value is 22.41%.

Question: And the “% of inhibition” value ([4]; chlorpyrifos oxon 5 · 10^−10 M)?
Answer: Its value is 27.09%.

Question: And the “% of inhibition” value ([4]; chlorpyrifos oxon 9 · 10^−10 M)?
Answer: The value was 44.54%.
